The values that follow come from US20160168147A1, “ISOTOPICALLY ENRICHED AZAINDOLES” (Vertex Pharmaceuticals Incorporated, priority 2013, published 2016).

The data set deals with Cryopreserved Human Hepatocytes. The experiment in a line: Assessment of metabolite profile and kinetic isotope effect in human hepatocytes (Example 6). Type of data set: in vitro ADME. As to conditions: 3 μM and 10 μM, sampled at 120 minutes, LC-MS MRM. As for the experimental part: Cryopreserved Human Hepatocytes lot TFF (purchased from Celsis) were used. Hepatocytes were thawed using CHRM and suspended in Williams E media containing cell maintenance supplement package. 1000 μL of a final cell concentration 1 million cells/mL were placed in individual incubation wells (24-well plate set-up). Incubation was conducted at 37° C. and kept in a CO2/O2 humidified incubator. 10 μL of compound stock was spiked into cell the matrix to achieve final incubation concentrations of 3 μM and 10 μM. The matrix was swirled prior to the removal of each time-point and 50 μL of sample were removed and added to 200 μL of acetonitrile containing internal standard, IS. Time-points were sampled at 120 minutes using MRM on an ABSciex API5500-QTrap paired with an Agilent 1290 UPLC and a CTC PAL autosampler. A 20-minute gradient method using a HALO C18 2.1×50 mm 2.7 μm column made by Advanced Materials Technology was used for the analysis. /

As for `[2H]c1[nH]c2ncccc2c1-c1nccc(N[C@](C)(CC)C(=O)NCC(F)(F)F)n1` [Compound 1-a, (2R)-2-[[2-(2-deuterio-1H-pyrrolo[2,3-b]pyridin-3-yl)pyrimidin-4-yl]amino]-2-methyl-N-(2.2.2-trifluoroethyl)butanamide], the new metabolites observed entry is “no new metabolites were observed”.
